Assay results taken from patent US20250230129A1, “POLYAMIDE COMPOUNDS, METHOD FOR PREPARING SAME, AND MEDICAL USE THEREOF” (priority 2022, published 2025).
Like-named read-outs stand apart in the source and are kept apart here.

Tests used:
κ receptor = κ receptor (Homo sapiens (Human), UniProt P41145); experiment: Competitive Kappa receptor binding assay (3H-U69593)
μ receptor = μ receptor (Homo sapiens (Human), UniProt P35372); experiment: μ receptor affinity assay (3H-DAMGO); type: binding
δ receptor = δ receptor (Homo sapiens (Human), UniProt P41143); experiment: Competitive delta receptor binding assay (3H-DADLE)
[1] = molecular target: κ-opioid receptor (Kappa) (Homo sapiens (Human), UniProt P41145); experiment: In vitro functional assay, HTRF cAMP-Gi in CHO-K1-OPRK1 cells; type: cell-based
ICR mice [2] = experiment: Acetic acid writhing test in mice; type: in vivo; conditions: Mus musculus, read-out: Acetic acid writhing in mice ED50
ICR mice [3] = conditions: mouse, in vivo
hERG = hERG (Homo sapiens (Human), UniProt Q12809); experiment: in vitro; conditions: pH 7.4
[4] = Autonomous activity test in mice; conditions: male, ICR, mouse, in vivo, iv
in vivo = conditions: male, ICR, mouse, iv
ICR mice [5] = experiment: Sedation safety window; conditions: sedation side effect ED50 (autonomic activity test)/efficacy ED50 (acetic acid writhing test)
[6] = PK and blood-brain barrier permeability in mice; type: in vivo; conditions: male ICR mice, intravenous 1 mg/kg; for AUC(0-inf) / Vd / clearance / half-life / Cmax: plasma; for half-life: read-out: t½ (converted)
Method: The compounds of the present disclosure were investigated for pharmacokinetic characteristics and blood-brain barrier permeability in mice.
Healthy male ICR mice were randomly grouped, 6 animals per group. For each test compound, 3 groups of animals were used. The first group of animals was used for collecting blood and brain 5 min after the administration, and the second group of animals and the third group of animals were used for cross blood collection at subsequent time points; each test compound was intravenously administered (1 mg/kg) to corresponding groups of mice, and blood sampling via submaxillary veins of the mice was carried out at different time points. Drug contents in plasma and brain tissues at different time points were measured by an LC-MS/MS method, the brain-to-blood ratio B/P was calculated by using EXCEL software, and pharmacokinetic parameters were calculated by using DAS3.0 software.

[7] = single intravenous injection, male ICR mice
[8] = blood and brain 5 min after administration

SMILES	Ki (κ receptor) [nM]	Ki (μ receptor) [nM]	Ki (δ receptor) [nM]	EC50 [1] [nM]	ED50 (ICR mice [2]; [7]) [mg/kg]	Safety window (ICR mice [3])	inhibition at 10 µM (hERG) [%]	ED50 at 30 min [4] [mg/kg]	ED50 (ICR mice [2]; iv) [mg/kg]	ED50 (in vivo) [mg/kg]	Safety window (ICR mice [5])	Kp at 5 min ([6]; mouse, brain/plasma, blood and brain 5 min after administration, read-out: B/P (brain-to-blood ratio))	AUC(0-inf) ([6]; mouse) [ng·h/mL]	Vd ([6]; mouse) [L/kg]	clearance ([6]; mouse) [mL/min/kg]	half-life ([6]; mouse) [min]	Cmax ([6]; mouse) [ng/mL]	B/P (brain-to-blood ratio) [6, 8]
COC(=O)NC1CCN(C(=O)[C@@H](CCCCN)NC(=O)[C@@H](CC(C)C)NC(=O)[C@@H](Cc2ccccc2)NC(=O)[C@H](N)Cc2ccccc2)CC1 [Compound 1A]	0.4	> 1000	> 1000	0.05	0.38	2.84	-0.94	1.08	–	–	–	–	–	–	–	–	–	–
CC(C)C[C@@H](NC(=O)[C@@H](Cc1ccccc1)NC(=O)[C@H](N)Cc1ccccc1)C(=O)N[C@H](CCCCN)C(=O)N1CCS(=N)(=O)CC1 [Compound 1B, (R)—N—((R)-6-amino-1-(1-imino-1-oxo-1λ6-thiomorpholine)-1-oxohex-2-yl)-2-((R)-2-((R)-2-amino-3-phenylpropionylamino)-3-phenylpropionylamino)-4-methylpentanamide]	0.42	> 1000	> 1000	0.52	–	2.50	1.2	–	0.2	0.5	–	–	–	–	–	–	–	–
CC(=O)N=S1(=O)CCN(C(=O)[C@@H](CCCCN)NC(=O)[C@@H](CC(C)C)NC(=O)[C@@H](Cc2ccccc2)NC(=O)[C@H](N)Cc2ccccc2)CC1 [Compound 3B]	1.05	> 1000	> 1000	1	–	7.74	1.13	–	0.42	–	–	–	–	–	–	–	–	–
CC(C)C[C@@H](NC(=O)[C@@H](Cc1ccccc1)NC(=O)[C@H](N)Cc1ccccc1)C(=O)N[C@H](CCCCN)C(=O)N1CCC2(CC1)OC(=O)Nc1ncccc12 [Compound 4A, (2R)—N-[(2R)-6-amino-1-oxo-1-{2′-oxo-1′H-spiro[piperidine-4,4′-pyrido[2,3-d][1,3]oxazin]-1-yl}hex-2-yl]-2-[(2R)-2-[(2R)-2-amino-3-phenylpropionylamino]-3-phenylpropionylamino]-4-methylpentanamide]	0.3	> 1000	> 1000	0.2	0.41	–	0.9	1.25	–	–	3.05	–	–	–	–	–	–	–
COC(=O)NC1CCN(C(=O)[C@@H](CCCCN)NC(=O)[C@@H](CC(C)C)NC(=O)[C@@H](Cc2ccccc2)NC(=O)N(C)C(CN)c2ccccc2)CC1 (stereo partly drawn) [Compound 12, methyl N-{1-[(2R)-6-amino-2-[(2R)-2-[(2R)-2-{[(2-amino-1-phenylethyl)(methyl)carbamoyl]amino}-3-phenylpropionylamino]-4-methylpentanoylamino]hexanoyl]piperidin-4-yl}carbamate]	0.53	> 1000	> 1000	0.17	–	–	2.13	–	–	–	–	0.008	3680	0.54	4.67	85.2	2260	–
CC(C)C[C@@H](NC(=O)[C@@H](Cc1ccccc1)NC(=O)N(CCN)Cc1ccccc1)C(=O)N[C@H](CCCCN)C(=O)N1CCC(N)(C(=O)O)CC1 [Compound 13]	0.13	> 1000	> 1000	0.52	0.23	–	0.8	2.83	–	–	12.30	–	1350	0.38	12.3	21	2540	0.015
CC(C)C[C@@H](NC(=O)[C@@H](Cc1ccccc1)NC(=O)N(Cc1ccccc1)C1CCNC1)C(=O)N[C@H](CCCCN)C(=O)N1CCC(N)(C(=O)O)CC1 (stereo partly shown) [Compound 27]	0.88	> 1000	> 1000	0.87	0.88	–	–	4.59	–	–	5.22	–	1160	0.63	14.7	30	2320	0.010
CC(C)C[C@@H](NC(=O)[C@@H](Cc1ccccc1)NC(=O)N(CCN)Cc1ccccc1)C(=O)N[C@H](CCCCN)C(=O)N1CCC2(CC1)NC(=O)NC2=O [Compound 29]	0.63	> 1000	> 1000	0.058	0.41	–	–	1.35	–	–	3.28	–	3340	0.32	5.17	44.4	4710	0.010
